Experimental data published in patent US20240270809A1, “ORAL GLP RECEPTOR AGONISTS” (priority 2020, published 2024).
Positions of bridges follow the written chain, without caps; N, C: chain ends. Non-standard residues stand in square brackets, D forms with d. Residues, ends and D or L forms follow the SMILES beside them. *: point of attachment. Malonyl(2,2-Me2,histaminyl) = CC(C)(C(=O)NCCc1cnc[nH]1)C(=O)*; Ala(1H-tetrazol-5-yl) = N[C@@H](Cc1nnn[nH]1)C(=O)O; αMePhe(2-F) = C[C@](N)(Cc1ccccc1F)C(=O)O; d(αMeF) = C[C@@](N)(Cc1ccccc1)C(=O)O; αMeL = CC(C)C[C@](C)(N)C(=O)O; Nle = CCCC[C@H](N)C(=O)O; Aib = CC(C)(N)C(=O)O

How the values were obtained:
human GLP2 receptor = target: T1, human GLP2 receptor (Homo sapiens, UniProt O95838); assay: cAMP accumulation assay, functional agonism of human GLP2 receptor; format: cell-based; details: HEK cells infected with human GLP2 receptor BacMam virus, HTRF cAMP; for Emax: HEK293, read-out: Human GLP-2R agonist cAMP Emax; for EC50: read-out: Human GLP-2R agonist cAMP pEC50 (converted)
T1 construct: expressed in transfected cells; host or cells: HEK cells, BacMam virus transduction
T1 sequence (O95838 1-553): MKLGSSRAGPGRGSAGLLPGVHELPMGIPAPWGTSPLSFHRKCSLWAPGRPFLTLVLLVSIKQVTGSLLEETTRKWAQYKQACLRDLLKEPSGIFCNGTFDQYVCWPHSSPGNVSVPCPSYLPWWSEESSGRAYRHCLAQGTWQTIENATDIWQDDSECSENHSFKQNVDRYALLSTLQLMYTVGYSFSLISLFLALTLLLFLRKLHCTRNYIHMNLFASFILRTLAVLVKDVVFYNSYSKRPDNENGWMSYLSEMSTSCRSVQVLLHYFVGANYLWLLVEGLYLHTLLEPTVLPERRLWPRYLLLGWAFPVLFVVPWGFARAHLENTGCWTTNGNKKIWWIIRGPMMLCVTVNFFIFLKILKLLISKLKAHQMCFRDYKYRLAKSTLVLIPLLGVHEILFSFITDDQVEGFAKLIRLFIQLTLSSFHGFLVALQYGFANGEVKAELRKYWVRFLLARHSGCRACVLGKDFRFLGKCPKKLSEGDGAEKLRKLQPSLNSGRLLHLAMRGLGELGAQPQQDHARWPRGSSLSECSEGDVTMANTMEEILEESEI
In short: (§1)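 HEK cells transduced for 24 hours with human GLP2 or GLP1 receptor BacMam virus were frozen, then stimulated with agonist in HBSS containing 0.5 mM IBMX. After 45 min at 37° C, cAMP was measured by HTRF after adding detection reagents in lysis buffer.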

human GLP1 receptor = target: T2, human GLP1 receptor (Homo sapiens, UniProt P43220); assay: cAMP accumulation assay, functional agonism of human GLP1 receptor; format: cell-based; details: HEK cells infected with human GLP1 receptor BacMam virus, HTRF cAMP; for Emax: HEK293, read-out: Human GLP-1R agonist cAMP Emax; for EC50: read-out: Human GLP-1R agonist cAMP pEC50 (converted)
T2 construct: expressed in transfected cells; host or cells: HEK cells, BacMam virus transduction
In short: as §1

mouse GLP2 receptor = target: T3, mouse GLP2 receptor (Mus musculus, UniProt Q5IXF8); assay: cAMP accumulation assay, functional agonism of mouse GLP2 receptor; format: cell-based; details: HEK cells transiently transfected with mouse GLP2 receptor, HTRF cAMP; for Emax: HEK293, read-out: Mouse GLP-2R agonist cAMP Emax; for EC50: read-out: Mouse GLP-2R agonist cAMP pEC50 (converted)
T3 construct: expressed in transfected cells; host or cells: HEK cells, transient transfection with GeneJuice
T3 sequence (Q5IXF8 1-512): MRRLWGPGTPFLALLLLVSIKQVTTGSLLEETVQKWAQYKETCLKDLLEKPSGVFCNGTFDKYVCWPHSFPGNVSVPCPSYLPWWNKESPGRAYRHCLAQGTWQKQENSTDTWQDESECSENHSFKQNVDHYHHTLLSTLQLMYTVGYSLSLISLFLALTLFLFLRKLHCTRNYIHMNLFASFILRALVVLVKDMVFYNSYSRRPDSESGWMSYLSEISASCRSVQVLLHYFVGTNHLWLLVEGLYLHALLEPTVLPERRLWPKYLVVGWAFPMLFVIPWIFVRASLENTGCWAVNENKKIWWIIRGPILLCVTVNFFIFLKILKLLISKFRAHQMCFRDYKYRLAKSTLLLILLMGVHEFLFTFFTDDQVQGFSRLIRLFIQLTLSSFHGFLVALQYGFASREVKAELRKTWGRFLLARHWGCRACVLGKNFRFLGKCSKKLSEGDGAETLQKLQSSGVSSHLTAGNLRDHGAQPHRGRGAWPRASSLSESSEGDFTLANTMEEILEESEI
In short: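 Transiently transfected HEK cells (24 h, frozen, 8000/well) in HBSS with 0.5 mM IBMX exposed to compound concentration series for 45 min at 37 °C. cAMP measured by HTRF after lysis and 1 h at RT; pEC50 from four-parameter concentration-response fit.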

[1] = Stability of peptides in rat intestinal fluid (ratIF); details: Sprague Dawley, undiluted rat small intestinal fluid (ratIF)
Protocol: Peptides were tested for in vitro stability in native intestinal fluid obtained from the rat small intestine. Rat Sprague Dawley Small Intestinal Fluid (ratIF) (from Biotrend art. no. RSD-SIF-MI-30ML, undiluted) was preincubated for 15 min at 37° C. and spiked with test and reference item working solutions. Experiments were conducted in duplicate in a non-serial manner. The total incubation volume per replicate was 150 μl. […] All samples and calibration standards (prepared in ratIF) were precipitated by addition of 300 μl precipitant (ACN / 2% acetic acid / 0.2% HFBA, (precipitation regent, PR)) containing internal standards (ISTD) to 150 μl sample. After incubation for 1 h at room temperature all samples were centrifuged for 10 min at 2,200×g (room temperature).

T2 sequence (P43220 24-463): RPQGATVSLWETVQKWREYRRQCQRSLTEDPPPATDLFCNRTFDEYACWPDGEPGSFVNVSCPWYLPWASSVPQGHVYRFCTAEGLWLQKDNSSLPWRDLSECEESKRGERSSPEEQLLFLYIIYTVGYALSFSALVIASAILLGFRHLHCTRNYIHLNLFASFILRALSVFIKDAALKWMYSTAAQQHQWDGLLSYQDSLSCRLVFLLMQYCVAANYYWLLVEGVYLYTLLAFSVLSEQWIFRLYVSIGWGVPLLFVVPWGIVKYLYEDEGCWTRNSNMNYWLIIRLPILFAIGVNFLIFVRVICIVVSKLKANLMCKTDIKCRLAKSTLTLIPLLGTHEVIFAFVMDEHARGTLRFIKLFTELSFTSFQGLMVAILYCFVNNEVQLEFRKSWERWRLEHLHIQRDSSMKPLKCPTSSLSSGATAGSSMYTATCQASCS

Molecule CCCC[C@H](NC(=O)[C@H](CCC(=O)O)NC(=O)[C@@H]1CC(=O)NCCCC[C@H](NC(=O)[C@H](Cc2nn[nH]n2)NC(=O)C(C)(C)C(=O)NCCc2c[nH]cn2)C(=O)N[C@@H](CO)C(=O)N[C@@](C)(Cc2ccccc2F)C(=O)N[C@@H](CO)C(=O)N1)C(=O)N[C@H](Cc1ccccc1)C(=O)N[C@H](C(=O)N[C@@](C)(CC(C)C)C(=O)N[C@@H](CC(C)C)C(=O)N[C@@H](CC(=O)O)C(=O)N[C@H]1CCC(=O)NCCCC[C@@H](C(=O)N[C@@H](CC(=O)O)C(=O)N[C@@H](Cc2ccccc2)C(=O)N[C@H](C(=O)N[C@H]2CCC(=O)NCCCC[C@@H](C(=O)N[C@H]3CCC(=O)NCCCC[C@@H](C(N)=O)NC(=O)[C@H]([C@@H](C)O)NC(=O)[C@H]([C@@H](C)CC)NC(=O)[C@H](CCCCN)NC3=O)NC(=O)[C@H]([C@@H](C)CC)NC(=O)[C@H](CC(C)C)NC(=O)[C@H](Cc3c[nH]c4ccccc34)NC2=O)[C@@H](C)CC)NC(=O)[C@H](C)NC(=O)[C@H](C)NC(=O)[C@H](CCCCN)NC1=O)[C@@H](C)O [Example 71] ({Malonyl(2,2-Me2,histaminyl)}-[Ala(1H-tetrazol-5-yl)]KS[αMePhe(2-F)]SDE[Nle][dF]T[αMeL]LDEKAAKDFIEWLIKEKITK-NH2; lactam 2-6, 14-18, 22-26, 27-31 (inferred); C-terminus assumed) has an Emax (human GLP2 receptor) of 103%, an EC50 (human GLP2 receptor) of 0.0251 nM and an Emax (human GLP1 receptor) of 98.2%. The EC50 (human GLP1 receptor) was 0.0251 nM, the Emax (mouse GLP2 receptor) was 89.7% and the EC50 (mouse GLP2 receptor) was 2 nM. For the same molecule, the remaining at 0.5 h [1] was 73.8%.
CCCC[C@H](NC(=O)[C@H](CCC(=O)O)NC(=O)[C@@H]1CC(=O)NCCCC[C@H](NC(=O)[C@H](CC(=O)O)NC(=O)C(C)(C)NC(=O)[C@@H](N)Cc2c[nH]cn2)C(=O)N[C@@H](CO)C(=O)N[C@@](C)(Cc2ccccc2F)C(=O)N[C@@H](CO)C(=O)N1)C(=O)N[C@H](Cc1ccccc1)C(=O)N[C@H](C(=O)N[C@@](C)(CC(C)C)C(=O)N[C@@H](CC(C)C)C(=O)N[C@@H](CC(=O)O)C(=O)N[C@H]1CCC(=O)NCCCC[C@@H](C(=O)N[C@@H](CC(=O)O)C(=O)N[C@@H](Cc2ccccc2)C(=O)N[C@H](C(=O)N[C@H]2CCC(=O)NCCCC[C@@H](C(=O)N[C@H](C(=O)N[C@@H](CCCCN)C(N)=O)[C@@H](C)O)NC(=O)[C@H]([C@@H](C)CC)NC(=O)[C@H](CC(C)C)NC(=O)[C@H](Cc3c[nH]c4ccccc34)NC2=O)[C@@H](C)CC)NC(=O)[C@H](C)NC(=O)[C@H](C)NC(=O)[C@H](CCCCN)NC1=O)[C@@H](C)O [Example 31] (H-H[Aib]DKS[αMePhe(2-F)]SDE[Nle][dF]T[αMeL]LDEKAAKDFIEWLIKTK-NH2; lactam 4-8, 16-20, 24-28) showed an Emax (human GLP2 receptor) of 103%, an EC50 (human GLP2 receptor) of 0.0398 nM and an Emax (human GLP1 receptor) of 98.3%. For the same molecule, the EC50 (human GLP1 receptor) was 0.0158 nM, the Emax (mouse GLP2 receptor) was 102% and the EC50 (mouse GLP2 receptor) was 0.158 nM. It also gave a remaining at 0.5 h [1] of 24.8%.
CCCC[C@H](NC(=O)[C@H](CCC(=O)O)NC(=O)[C@@H]1CC(=O)NCCCC[C@H](NC(=O)[C@H](CC(=O)O)NC(=O)C(C)(C)NC(=O)[C@@H](N)Cc2c[nH]cn2)C(=O)N[C@@H](CO)C(=O)N[C@@H](Cc2ccccc2)C(=O)N[C@@H](CO)C(=O)N1)C(=O)N[C@](C)(Cc1ccccc1)C(=O)N[C@H](C(=O)N[C@@](C)(CC(C)C)C(=O)N[C@@H](CC(C)C)C(=O)N[C@@H](CC(=O)O)C(=O)N[C@H]1CCC(=O)NCCCC[C@@H](C(=O)N[C@@H](CC(=O)O)C(=O)N[C@@H](Cc2ccccc2)C(=O)N[C@H](C(=O)N[C@H]2CCC(=O)NCCCC[C@@H](C(=O)N[C@H](C(=O)N[C@@H](CCCCN)C(N)=O)[C@@H](C)O)NC(=O)[C@H]([C@@H](C)CC)NC(=O)[C@H](CC(C)C)NC(=O)[C@H](Cc3c[nH]c4ccccc34)NC2=O)[C@@H](C)CC)NC(=O)[C@H](C)NC(=O)[C@H](C)NC(=O)[C@H](CCCCN)NC1=O)[C@@H](C)O [Example 36] (H-H[Aib]DKSFSDE[Nle][d(αMeF)]T[αMeL]LDEKAAKDFIEWLIKTK-NH2; lactam 4-8, 16-20, 24-28; N-terminus and C-terminus assumed) gave an Emax (human GLP2 receptor) of 104%, an EC50 (human GLP2 receptor) of 0.0316 nM and an Emax (human GLP1 receptor) of 97.1%. It also gave an EC50 (human GLP1 receptor) of 0.0316 nM and a remaining at 0.5 h [1] of 23.3%.
Molecule CCCC[C@H](NC(=O)[C@H](CCC(=O)O)NC(=O)[C@@H]1CC(=O)NCCCC[C@H](NC(=O)[C@H](CCC(N)=O)NC(=O)C(C)(C)NC(=O)[C@@H](N)Cc2c[nH]cn2)C(=O)N[C@@H](CO)C(=O)N[C@@H](Cc2ccccc2)C(=O)N[C@@H](CO)C(=O)N1)C(=O)N[C@H](Cc1ccccc1)C(=O)N[C@H](C(=O)N[C@@](C)(CC(C)C)C(=O)N[C@@H](CC(C)C)C(=O)N[C@@H](CC(=O)O)C(=O)N[C@H]1CCC(=O)NCCCC[C@@H](C(=O)N[C@@H](CC(=O)O)C(=O)N[C@@H](Cc2ccccc2)C(=O)N[C@H](C(=O)N[C@H]2CCC(=O)NCCCC[C@@H](C(=O)N[C@H](C(=O)N[C@@H](CCCCN)C(N)=O)[C@@H](C)O)NC(=O)[C@H]([C@@H](C)CC)NC(=O)[C@H](CC(C)C)NC(=O)[C@H](Cc3c[nH]c4ccccc34)NC2=O)[C@@H](C)CC)NC(=O)[C@H](C)NC(=O)[C@H](C)NC(=O)[C@H](CCCCN)NC1=O)[C@@H](C)O [Example 27] (H-H[Aib]QKSFSDE[Nle][dF]T[αMeL]LDEKAAKDFIEWLIKTK-NH2; lactam 4-8, 16-20, 24-28; N-terminus and C-terminus assumed) has an Emax (human GLP2 receptor) of 99.3%, an EC50 (human GLP2 receptor) of 0.0631 nM and an Emax (human GLP1 receptor) of 97.1%. For the same molecule, the EC50 (human GLP1 receptor) was 0.251 nM and the remaining at 0.5 h [1] was 11%.
Work on CCCC[C@H](NC(=O)[C@H](CCC(=O)O)NC(=O)[C@@H]1CC(=O)NCCCC[C@H](NC(=O)[C@H](CC(=O)O)NC(=O)C(C)(C)NC(=O)[C@@H](N)Cc2c[nH]cn2)C(=O)N[C@@H](CO)C(=O)N[C@@H](Cc2ccccc2)C(=O)N[C@@H](CO)C(=O)N1)C(=O)N[C@H](Cc1ccccc1)C(=O)N[C@H](C(=O)N[C@@](C)(CC(C)C)C(=O)N[C@@H](CC(C)C)C(=O)N[C@@H](CC(=O)O)C(=O)N[C@H]1CCC(=O)NCCCC[C@@H](C(=O)N[C@@H](CC(=O)O)C(=O)N[C@@H](Cc2ccccc2)C(=O)N[C@H](C(=O)N[C@H]2CCC(=O)NCCCC[C@@H](C(=O)N[C@H](C(=O)N3CCC[C@H]3C(N)=O)[C@@H](C)O)NC(=O)[C@H]([C@@H](C)CC)NC(=O)[C@H](CC(C)C)NC(=O)[C@H](Cc3c[nH]c4ccccc34)NC2=O)[C@@H](C)CC)NC(=O)[C@H](C)NC(=O)[C@H](C)NC(=O)[C@H](CCCCN)NC1=O)[C@@H](C)O [Example 29] (H-H[Aib]DKSFSDE[Nle][dF]T[αMeL]LDEKAAKDFIEWLIKTP-NH2; lactam 4-8, 16-20, 24-28 (inferred); C-terminus assumed) yielded an Emax (human GLP2 receptor) of 103%, an EC50 (human GLP2 receptor) of 0.0316 nM and an Emax (human GLP1 receptor) of 96.2%. It also gave an EC50 (human GLP1 receptor) of 0.0501 nM, an Emax (mouse GLP2 receptor) of 100% and an EC50 (mouse GLP2 receptor) of 5.01 nM. It also gave a remaining at 0.5 h [1] of 41.3%.
